Assay results: US20250179126A1, “A NOVEL PEPTIDE FROM A PHOTOSYNTHETIC BACERIUM DIRECTLY TARGETS MITOCHONDRIA TO TRIGGER APOPTOSIS IN ADVANCED PROSTATE CANCER CELLS” (priority 2022, published 2025)

What was measured:
[1] = system: spontaneous mammary tumors; assay type: in vivo, MMTV-PyMT transgenic mice
Source text: FIG. 26A-26H: Azurin-producing P. aeruginosa in human tumors. The azurin-encoding gene (azu) was detected in tumors from patients with breast cancer and melanoma. It was amplified by PCR with P. aeruginosa azu-specific primers and confirmed by DNA sequencing. […] In melanoma (26A), 27.6% (8 of 29) of primary tumors and 5.9% (2 of 34) of metastatic tumors were azu positive (P<0.05). In breast cancer (26B), 22.7% (5 of 22) of primary tumors and 14.3% (2 of 14) of metastatic tumors were azu positive (P>0.05). In addition, frozen tumor samples were processed for immunogold transmission electron microscopy (TEM) by using anti-P. aeruginosa and anti-azurin antibodies. […] Magnification: ×3000. […] Survival analysis of patients with azu-positive vs. azu-negative primary melanoma (26E, P<0.01) and primary breast cancer (26F, P<0.05) tumors. 26G—Hemizvgous MMTV-PyMT transgenic mice were injected with either PBS control or 2.5 mg/kg azurin (intraperitoneally, 3× weekly) for 2 months. The mean+SE values of tumor volume were calculated. h Tumor-free survival curve was generated with the PBS control and 2.5 mg/kg azurin groups of MMTV-PyMT transgenic mice. Median tumor-free survival of the PBS control and azurin-treatment groups was 67 and 72 days, respectively. P=0.015
FIG. 29A-29C: Effect of azurin from P. aeruginosa in a transgenic animal model. 29A. Near-infrared red (NIR) dye-conjugated azurin or PBS was injected i.v. into transgenic mice that spontaneously develop mammary tumors. Twenty-four hours after azurin injection, mice were imaged with a photodynamic eye (PDE) system (left: photographic image, right: NIR fluorescence image at 800 nm). 29B. At the end of the study, the tumors were resected.
Effect of azurin on transgenic mice: Hemizygous MMTV-PyMT (mouse mammary tumor virus-polyoma middle tumor-antigen) female mice were obtained from The Jackson Laboratory. […] In order to reach this level of azurin in mouse (25 g-body weight, 2 ml total blood volume), azurin does at 2.5 mg/kg was determined. Tumor volume and body weights were determined three times weekly. […]

Mel-2 cells = test: Aldolase A secretion and expression in Mel-2 cells treated with purified azurin; assay type: cell-based, human; conditions: Mel-2, purified azurin 100 nM, 10 μM, 1 mM, 30 min
Protocol: FIG. 18A-18G: Induction of aldolase A secretion by host cells in the presence of P. aeruginosa. 18A. Human host cells (cancer and normal) and P. aeruginosa were co-incubated for 30 min at a concentration of 500,000 human cells/ml with P. aeruginosa at OD=0.3. Aldolase secretion varied between the co-cultures with cancer and normal cells. […] 18B Correlation between the aldolase A and azurin levels in co-cultures of P. aeruginosa with cancer or normal cells. 18C Cancer cells (Mel-2 and MDA-MB-231) and P. aeruginosa (WT and azunull mutant) were co-incubated for 30 min at a concentration of 500,000 human cells/ml with P. aeruginosa at OD=0.3. Secretion of aldolase into the culture supernatant was assessed by western blot analysis. […]
Aldolase A gene expression in MDA-MB-231 (black bars) and Mel-2 (white bars) cells was determined by RT-PCR (22A). […] 22B: Intracellular levels of aldolase A were assessed by western blot analysis with an anti-aldolase A antibody. […]
Western blotting: After running the NuPAGE, proteins were transferred to PVDF membranes (BioRad Laboratories Inc, Hercules, CA) which were blocked in SuperBlock (T20 TBS buffer, Thermo Fisher) for one hour. […] The signal was detected using enhanced chemiluminescence (ECL, Thermo Fisher Scientific). Quantitative analysis of the bands was performed with a computer-assisted imaging densitometer (UN-SCAN-IT gel version 5.1). […]

azurin: 14 kDa periplasmic copper protein of 128 amino acids from P. aeruginosa; purified recombinant
tumor-free survival ([1]; 2.5 mg/kg azurin i.p. 3× weekly): significantly extended | tumor growth (tumor volume) ([1]; 2.5 mg/kg azurin i.p. 3× weekly, 2 months): significantly inhibited | Median tumor-free survival ([1]; 2.5 mg/kg azurin intraperitoneally, 3× weekly): 72 days | aldolase A gene expression and intracellular levels (Mel-2 cells): without increasing gene expression or intracellular levels of aldolase A | aldolase A secretion into culture medium (western blot) (Mel-2 cells): secreted a considerable amount of human aldolase A
